Test results taken from patent publication US11358987B2, “Albicidin derivatives, their use and synthesis” (priority 2018, dated 2022).
In brackets after ≈: the same amount, converted by molar mass. Read-outs that look alike come from different tables or passages of the source.

Columns and labels:
Test in all cases: Microdilution assay, MIC determination (CLSI M07-A9)
Assay type in all cases: cell-based
[1] = test system: E. coli BW25113; settings: Escherichia coli
Method: (§1) E. coli DSM 1116; E. coli BW25113; S. typhimurium TA100; Bacillus subtilis DSM10; M. phlei DSM750 and Micrococcus luteus DSM1790
(§2) The tests were performed using the micro dilution method.
(§3) The determination of MIC values was performed according to the ninth edition of the Approved Standard M07-A9 (CLSI. Methods for Dilution Antimicrobial Susceptibility Tests for Bacteria That Grow Aerobically; Approved Standard-Ninth Edition. CLSI document M07-A9. Wayne, Pa.: Clinical and Laboratory Standards Institute; 2012.)
(§4) The test was carried out for the six different bacterial strains 20 μL of cryo stock of each strain were inoculated in 20 mL of LB media (Lysogeny broth: 10 g/L peptone, 5 g/L yeast extract, 5 g/L NaCl) followed by incubation over night at 37° C., 200 rpm. The test inoculum was adjusted by the 0.5 McFarland Standard (OD625 from 0.08 to 0.1). Within 15 min of preparation, the adjusted inoculum suspension was diluted in MHBII media (BBL™ Mueller-Hinton Broth II, Becton, Dickinson and Company, New Jersey/USA) so that each well contained approximately 5×10^5 CFU/mL in a final volume of 100 μL. 95 μL of the inoculum were applied per well and 5 μL of the (diluted) antibiotic substance were added.
(§5) Previously the dry antibiotic compounds were dissolved in DMSO (100%) with a concentration of 2560 μg/mL and the resulting stock solutions were further diluted in DMSO (100%). 5 μL of each antibiotic dilution were applied to the microdilution tray to reach final concentrations of 64 μg/mL to 0.008 μg/mL. One row of each well plate was left as a growth control without antibiotic substances and another row of the microdilution tray was used as sterility control (only MHB II-media). The antimicrobial effect of the solvent (DMSO) was tested by adding 5 μL DMSO to several wells without antibiotics.
(§6) Purity check and cell titer control were performed according to International Standard M07-A9 on Mueller-Hinton II Agar (Mueller Hinton II Broth, 15 g/L agar-agar).
(§7) Both microdilution trays and agar plates were incubated at 37° C. for 20 h and subsequently analyzed visually.

[2] = test system: S. typhimurium TA100; settings: Salmonella enterica, 20 h
Method: as §1, §2, §3, §4, §5, §6, §7

[3] = test system: M. phlei DSM750; settings: Mycolicibacterium phlei
Method: as §1, §2, §3, §4, §5, §6, §7

[4] = test system: M. luteus DSM1790; settings: Micrococcus luteus
Method: as §1, §2, §3, §4, §5, §6, §7

[5] = test system: B. subtilis DSM10; settings: Bacillus subtilis
Method: as §1, §2, §3, §4, §5, §6, §7

[6] = test system: E. coli DSM1116; settings: Escherichia coli
Method: as §1, §2, §3, §4, §5, §6, §7

[7] = E. coli BW25113, 37° C., 20 h, MHBII media, read-out: MIC
[8] = M. phlei DSM750, 37° C., 20 h, MHBII media, read-out: MIC
[9] = M. luteus DSM1790, 37° C., 20 h, MHBII media, read-out: MIC
[10] = B. subtilis DSM10, 37° C., 20 h, MHBII media, read-out: MIC
[11] = E. coli DSM1116, 37° C., 20 h, MHBII media, read-out: MIC
[12] = S. typhimurium TA100, 37° C., MHBII media, read-out: MIC

Compound | MIC [1, 7] | MIC ([2]; TYPHIMURIUM) | MIC [3, 8] | MIC [4, 9] | MIC [5, 10] | MIC [6, 11] | MIC [2, 12] | MIC ([1]; BW25113, 20 h) | MIC ([3]; DSM750, 20 h) | MIC ([4]; DSM1790, 20 h) | MIC ([5]; DSM10, 20 h) | MIC ([6]; DSM1116, 20 h)
COc1c(NC(=O)c2ccc(NC(=O)[C@H](Cc3c[nH]nn3)NC(=O)c3ccc(NC(=O)/C(C)=C/c4ccc(O)cc4)cc3)cc2)ccc(C(=O)Nc2ccc(C(=O)O)nc2)c1O [Compound 20] | > 8000 µg/mL | 125 µg/mL (≈ 149 µM) | ≥ 8000 µg/mL | ≥ 8000 µg/mL | ≥ 8000 µg/mL | > 8000 µg/mL | – | – | – | – | – | –
COc1nc(C(=O)Nc2ccc(C(=O)O)nc2OC)ccc1NC(=O)c1ccc(NC(=O)[C@H](Cc2c[nH]nn2)NC(=O)c2ccc(NC(=O)/C(C)=C/c3ccc(O)cc3)cc2)cc1 [Compound 19] | 1000 µg/mL (≈ 1170 µM) | – | 8000 µg/mL (≈ 9360 µM) | 2000 µg/mL (≈ 2340 µM) | 4000 µg/mL (≈ 4680 µM) | 500 µg/mL (≈ 585 µM) | 500 µg/mL (≈ 585 µM) | – | – | – | – | –
COc1c(NC(=O)c2ccc(NC(=O)c3ccc(NC(=O)C(Cc4cnn[nH]4)NC(=O)c4ccc(NC(=O)/C(C)=C/c5ccc(O)cc5)cn4)cc3O)c(OC)c2O)ccc(C(=O)O)c1O (stereo not drawn) [Compound 4] | 31 µg/mL (≈ 34.4 µM) | – | 2000 µg/mL (≈ 2220 µM) | 2000 µg/mL (≈ 2220 µM) | 1000 µg/mL (≈ 1110 µM) | 31 µg/mL (≈ 34.4 µM) | 16 µg/mL (≈ 17.7 µM) | – | – | – | – | –
COc1c(NC(=O)c2ccc(NC(=O)c3ccc(NC(=O)C(Cc4cnn[nH]4)NC(=O)c4ccc(NC(=O)/C(C)=C/c5ccc(O)cc5)cn4)cc3)c(OC)c2O)ccc(C(=O)O)c1O (stereo not drawn) [Compound 1] | – | 16 µg/mL (≈ 18.1 µM) | – | – | – | – | – | 16 µg/mL (≈ 18.1 µM) | 2000 µg/mL (≈ 2260 µM) | 500 µg/mL (≈ 564 µM) | 250 µg/mL (≈ 282 µM) | 16 µg/mL (≈ 18.1 µM)
COc1c(NC(=O)c2ccc(NC(=O)c3ccc(NC(=O)C(Cc4cnn[nH]4)NC(=O)c4ccc(NC(=O)/C(C)=C/c5ccc(O)cc5)nc4)cc3)c(OC)c2O)ccc(C(=O)O)c1O (stereo not drawn) [Compound 2] | 16 µg/mL (≈ 18.1 µM) | – | 2000 µg/mL (≈ 2260 µM) | 2000 µg/mL (≈ 2260 µM) | 500 µg/mL (≈ 564 µM) | 31 µg/mL (≈ 35 µM) | 16 µg/mL (≈ 18.1 µM) | – | – | – | – | –
COc1c(NC(=O)c2ccc(NC(=O)c3ccc(NC(=O)C(Cc4cnn[nH]4)NC(=O)c4ccc(NC(=O)/C(C)=C/c5ccc(O)cc5)cc4)nc3)c(OC)c2O)ccc(C(=O)O)c1O (stereo not drawn) [Compound 11] | 500 µg/mL (≈ 564 µM) | – | 8000 µg/mL (≈ 9030 µM) | 4000 µg/mL (≈ 4520 µM) | 500 µg/mL (≈ 564 µM) | 1000 µg/mL (≈ 1130 µM) | 4000 µg/mL (≈ 4520 µM) | – | – | – | – | –
C/C(=C\c1ccc(O)cc1)C(=O)Nc1ccc(C(=O)N[C@@H](Cc2c[nH]nn2)C(=O)Nc2ccc(C(=O)Nc3ccc(C(=O)Nc4ccc(C(=O)O)cc4)c(O)c3OC(C)C)nc2)cc1 [Compound 15] | 31 µg/mL (≈ 35.7 µM) | – | 250 µg/mL (≈ 288 µM) | 63 µg/mL (≈ 72.6 µM) | ≤ 16 µg/mL | 31 µg/mL (≈ 35.7 µM) | ≤ 16 µg/mL | – | – | – | – | –
COc1nc(C(=O)Nc2ccc(C(=O)O)c(O)c2OC)ccc1NC(=O)c1ccc(NC(=O)C(Cc2cnn[nH]2)NC(=O)c2ccc(NC(=O)/C(C)=C/c3ccc(O)cc3)cc2)cc1 (stereo not drawn) [Compound 6] | 16 µg/mL (≈ 18.4 µM) | – | 1000 µg/mL (≈ 1150 µM) | 125 µg/mL (≈ 144 µM) | 250 µg/mL (≈ 287 µM) | 16 µg/mL (≈ 18.4 µM) | 31 µg/mL (≈ 35.6 µM) | – | – | – | – | –
COc1c(NC(=O)c2ccc(NC(=O)C(Cc3cnn[nH]3)NC(=O)c3ccc(NC(=O)/C(C)=C/c4ccc(O)cc4)cn3)cc2)ccc(C(=O)Nc2ccc(C(=O)O)c(O)c2OCCO)c1O (stereo not drawn) [Compound 8] | 125 µg/mL (≈ 136 µM) | – | 2000 µg/mL (≈ 2180 µM) | 2000 µg/mL (≈ 2180 µM) | 2000 µg/mL (≈ 2180 µM) | 63 µg/mL (≈ 68.8 µM) | 31 µg/mL (≈ 33.8 µM) | – | – | – | – | –
CC(C)Oc1c(NC(=O)c2ccc(NC(=O)[C@H](Cc3c[nH]nn3)NC(=O)c3ccc(NC(=O)c4ccc(C#N)cc4)cn3)cn2)ccc(C(=O)Nc2ccc(C(=O)O)cc2)c1O [Compound 18] | ≤ 16 µg/mL | – | 31 µg/mL (≈ 37 µM) | ≤ 16 µg/mL | ≤ 16 µg/mL | 31 µg/mL (≈ 37 µM) | ≤ 16 µg/mL | – | – | – | – | –
C/C(=C\c1ccc(O)cc1)C(=O)Nc1ccc(C(=O)N[C@@H](Cc2c[nH]nn2)C(=O)Nc2ccc(C(=O)Nc3ccc(C(=O)Nc4ccc(C(=O)O)cc4)c(O)c3OC(C)C)nc2)nc1 [Compound 16] | ≤ 16 µg/mL | – | 31 µg/mL (≈ 35.7 µM) | ≤ 16 µg/mL | ≤ 16 µg/mL | 31 µg/mL (≈ 35.7 µM) | ≤ 16 µg/mL | – | – | – | – | –
